Experiments:
[1] = Appearance of solid samples stored at ambient temperatures over time; type: physicochemical; conditions: ambient storage
From the text: (§1) Samples of the materials were stored at ambient temperatures and the appearance of the samples and the mass thereof were noted over time.

[2] = solid form of the commercially available material; cited from earlier work
[3] = Increase in mass of solid samples stored at ambient temperatures over time; type: physicochemical; conditions: ambient storage
From the text: as §1

Appearance (2 h), printed in the column after 24 hr ([1]; 2 h): Sticky solid
Appearance after 48 hr ([1]; 48 hr): Very stick
Appearance after 72 hr ([1]; 72 hr): Very sticky
Initial Appearance ([1]; initial): Free flowing
% increase in mass after 2 h ([3]; 2 h): 7.4%
% increase in mass after 4 h ([3]; 4 h): 8.9%
% increase in mass after 72 h ([3]; 72 h): 25%
SMILES: O=C1CCC(=O)ON2CCN(O1)OC(=O)CCC(=O)O2.[Na].[Na].[Na] [Na3EDDS, trisodium ethylenediamine disuccinate]
hygroscopicity of the solid form [2]: very hygroscopic

From US8628683B2 (Innospec Limited, priority 2007, dated 2014)
